Laboratory results published in patent US5763673A, “Diarylheptanoide derivative and pharmaceutical composition comprising the same” (Kabushiki Kaisha Yakult Honsha, priority 1994, dated 1998).

What was measured:
[1] = tested on: 5-lipoxygenase; test: 5-Lipoxygenase inhibiting activity (5-HETE production); format: biochemical, rat; details: RBL-1 5-lipoxygenase; 5-HETE by HPLC; values only in FIG. 1
Description: A sample of 5-lipoxygenase was prepared from basophilic leukemia cells of rat (RBL-1). First, the RBL-1 was cultured in an MEM medium (manufactured by Nissui Pharmaceutical Co.) containing 0.0292% of L-glutamine and 10% of FCS under conditions of 5% CO2 and at 37° C. for 3 days. After culture, the cells were collected by centrifuge (1000 rpm, 10 min., 4° C.) and washed twice with Dulbeccol's PBS (-) (manufactured by Nissui Pharmaceutical Co.) . The cells were suspended in 50 ml of Tris-HCl buffer (pH 7.4) at a concentration of 7.5×10^7 cells/ml. The cell suspension was ultrasonically treated in an ice bath and centrifuged (1300 rpm, 30 min., 4° C.) to obtain a 5- lipoxygenase sample as supernatant.
76 μl of 50 mM Tris-HCl buffer (pH 7.4) containing 2.56 mM of CaCl2 and 2.56 mM of ATP and 20 μl of 5-lipoxygenase sample prepared above were added to 2μl of a solution containing a prescribed amount of the diarylheptanoide derivative (1) prepared in Example 1 in DSMO. The mixture was incubated at 37° C. […] The amount of 5-HETE in the supernatant was measured by HPLC (column: Nova-pak 5C18; eluant: a 60:40 acetonitrile:0.05 M KH2 PO4 solution with 5 mM trihexyl bromide added; flow rate: 0.8 ml/min.; wavelength: 235 nm). The amount of 5-HETE produced was calculated from the peak area of the 5-HETE. […]

[2] = tested on: TPA induced edematization in ears; test: Ear edema induction test with TPA (12-O-tetradecanoylphorbol-13-acetate); format: in vivo, ICR male mouse; details: 0.5 mg/ear; for Rate of inhibition (%): 4 h after TPA, relative to rate of edematization of control group taken as 100; for Rate of edematization (%): both sides of right ear, 4 h after TPA (10 μl of 40 μg/ml), control group 161.1
Description: Four hours after the application of TPA, the center of right and left ears was cut out with a punch with a diameter of 6.5 mm to measure the weights. The rate of edematization of ears was calculated according to the following formula: [formula] The rate of edema enlargement inhibition was determined taking the rate of edematization of the control group to which no compound was applied as 100.

[3] = tested on: ears of mice; test: Toxicity on application to ears of mice; format: in vivo; details: 5 mg/ear, 10 times the effective concentration
[4] = tested on: 5-lipoxygenase; details: background, as reported; cited from earlier work

| Compound | 5-lipoxygenase inhibiting effect (in words) [1] | effect compared with comparative compound (6) (in words) [2] | effect for inhibiting TPA induced edematization in ears (in words) [2] | Rate of inhibition (%) [2] [%] | Rate of edematization (%) [2] [%] | toxicity (in words) [3] | 5-lipoxygenase inhibiting activity (in words) [4] |
| --- | --- | --- | --- | --- | --- | --- | --- |
| COc1cc(C=CC(=O)CCCCc2ccccc2)cc(OC)c1O [Compound (1), 1-(3,5-dimethoxy-4-hydroxyphenyl)-7-phenyl-1-heptene-3-one] | strong 5-lipoxygenase inhibiting effect | stronger than that of the comparative compound | strong effect for inhibiting TPA induced edematization in ears | 96.1 | 6.3 | No toxicity was exhibited | – |
| COc1cc(/C=C/C(=O)CCCCc2ccccc2)ccc1O [Yakuchinone-B] | – | – | – | – | – | – | exhibiting a 5-lipoxygenase inhibiting activity |
| COc1cc(CCC(=O)CCCCc2ccccc2)ccc1O [Yakuchinone-A] | – | – | – | – | – | – | exhibiting a 5-lipoxygenase inhibiting activity |
| O=C(C=Cc1ccc(O)c(O)c1)CCCCc1ccccc1 [(6), 1-(3,4-dihydroxyphenyl)-7-phenyl-1-heptene-3-one, reference compound] | – | – | – | 84.5 | 24.9 | – | most strong 5-lipoxygenase inhibiting action |
